The target of experiment [1] is GDP-bound KRAS protein (aa 1-169), containing both G12C and C118A amino acid substitutions (Homo sapiens, UniProt P01116, C118A/G12C). Nature of the experiment: Coupled Nucleotide Exchange Assay. In kind it is biochemical. Particulars: 5 min compound pre-incubation; SOS-mediated nucleotide exchange, AlphaScreen. The method, then: Following compound pre-incubation, purified SOS protein (aa 564-1049) and GTP (Roche 10106399001) were added to the assay wells and incubated for an additional 30 min. To determine the extent of inhibition of SOS-mediated nucleotide exchange, purified GST-tagged cRAF (aa 1-149), nickel chelate AlphaLISA acceptor beads (PerkinElmer AL108R), and AlphaScreen glutathione donor beads (PerkinElmer 6765302) were added to the assay wells and incubated for 10 minutes. The assay plates were then read on a PerkinElmer EnVision Multilabel Reader, using AlphaScreen® technology, and data were analyzed using a 4-parameter logistic model to calculate IC50 values.
GDP-bound KRAS protein (aa 1-169), containing both G12C and C118A amino acid substitutions, sequence (P01116 1-169 isoform P01116-2 G12C/C118A): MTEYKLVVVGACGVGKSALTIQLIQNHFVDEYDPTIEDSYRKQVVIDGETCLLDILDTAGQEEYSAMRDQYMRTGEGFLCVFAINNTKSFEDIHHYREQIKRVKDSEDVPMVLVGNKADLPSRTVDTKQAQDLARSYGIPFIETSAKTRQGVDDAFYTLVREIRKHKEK

In experiment [2] the test system is Phosphorylation of ERK1/2 in MIA PaCa-2 cells. Nature of the experiment: Phospho-ERK1/2 MSD Assay. In kind it is cell-based. The following applies: EGF stimulation 10 ng/mL, 10 min, read-out: p-ERK IC50 (2 h). The protocol: Phospho-ERK1/2 MSD Assay: MIA PaCa-2 (ATCC® CRL-1420™) and A549 (ATCC® CCL-185™) cells were cultured in RPMI 1640 Medium (ThermoFisher Scientific 11875093) containing 10% fetal bovine serum (ThermoFisher Scientific 16000044) and 1× penicillin-streptomycin-glutamine (ThermoFisher Scientific 10378016). Sixteen hours prior to compound treatment, MIA PaCa-2 were seeded in 96-well cell culture plates at a density of 25,000 cells/well and incubated at 37° C., 5% CO2. A compound dose-response titration was diluted in growth media, added to appropriate wells of a cell culture plate, and then incubated at 37° C., 5% CO2 for 2 (see Table 10). Following compound treatment, cells were stimulated with 10 ng/mL EGF (Roche 11376454001) for 10 min, washed with ice-cold Dulbecco's phosphate-buffered saline, no Ca^2+ or Mg^2+ (ThermoFisher Scientific 14190144), and then lysed in RIPA buffer (50 mM Tris-HCl pH 7.5, 1% Igepal, 0.5% sodium deoxycholate, 150 mM NaCl, and 0.5% sodium dodecyl sulfate) containing protease inhibitors (Roche 4693132001) and phosphatase inhibitors (Roche 4906837001). Phosphorylation of ERK1/2 in compound-treated lysates was assayed using Phospho-ERK1/2 Whole Cell Lysate kits (Meso Scale Discovery K151DWD) according to the manufacturer's protocol. Assay plates were read on a Meso Scale Discovery Sector Imager 6000, and data were analyzed using a 4-parameter logistic model to calculate IC50 values.

Where [3] appears, read: Homo sapiens, MIA PaCa-2, 2 h compound treatment.

18 compounds from patent US12583854B2, “KRAS G12C inhibitors and methods of using the same” (Amgen Inc., priority 2018, dated 2026) can be followed below.

Structures can show the parent of a compound that is named as a salt. Where two headings read alike, the source gives them in different places.

With `C=CC(=O)N1CCN(c2c(C#N)c(=O)n(-c3c(C)ccnc3C(C)C)c3nc(-c4ccccc4F)c(Cl)cc23)C[C@H]1C` [Example 6.2, (R)-4-(4-acryloyl-3-methylpiperazin-1-yl)-6-chloro-7-(2-fluorophenyl)-1-(2-isopropyl-4-methylpyridin-3-yl)-2-oxo-1,2-dihydro-1,8-naphthyridine-3-carbonitrile], in experiment [1], the “Coupled exchange IC50 (5 min; μM)” value was 0.28 µM. In addition, the IC50 in experiment [2] (setting [3]) is 140 nM. On the same counts, the results for `CC(C)c1ncnc(C(C)C)c1-n1c(=O)c(C#N)c(N2CCN(C(=O)/C=C/CN(C)C)CC2)c2cc(Cl)c(-c3ccccc3F)nc21` [Example 3, (E)-6-Chloro-1-(4,6-diisopropylpyrimidin-5-yl)-4-(4-(4-(dimethylamino)but-2-enoyl)piperazin-1-yl)-7-(2-fluorophenyl)-2-oxo-1,2-dihydro-1,8-naphthyridine-3-carbonitrile] are 0.4 µM and 720 nM. On the same counts, the results for `C=CC(=O)N1CCN(c2c(C#N)c(=O)n(-c3c(C(C)C)ccnc3C(C)C)c3nc(-c4ccccc4F)c(Cl)cc23)CC1` (single isomer, unassigned) [Example 8.1, 4-(4-acryloylpiperazin-1-yl)-6-chloro-1-(2,4-diisopropylpyridin-3-yl)-7-(2-fluorophenyl)-2-oxo-1,2-dihydro-1,8-naphthyridine-3-carbonitrile] are 0.07 µM and 320 nM. Regarding `C=CC(=O)N1CCN(c2c(C#N)c(=O)n(-c3c(C(C)C)ncnc3C(C)C)c3nc(-c4c(N)cccc4F)c(Cl)cc23)CC1` [Example 11.4, 4-(4-acryloylpiperazin-1-yl)-7-(2-amino-6-fluorophenyl)-6-chloro-1-(4,6-diisopropylpyrimidin-5-yl)-2-oxo-1,2-dihydro-1,8-naphthyridine-3-carbonitrile], the “Coupled exchange IC50 (5 min; μM)” value in experiment [1] was 0.13 µM. Moreover, the IC50 in experiment [2] (setting [3]) is 90 nM. The like results for `C=CC(=O)N1[C@H](C)CN(c2c(C#N)c(=O)n(-c3c(C)ccnc3C(C)C)c3nc(-c4ccccc4F)c(Cl)cc23)C[C@@H]1C` [Example 7.3, 4-((3R,5S)-4-acryloyl-3,5-dimethylpiperazin-1-yl)-6-chloro-7-(2-fluorophenyl)-1-(2-isopropyl-4-methylpyridin-3-yl)-2-oxo-1,2-dihydro-1,8-naphthyridine-3-carbonitrile] were, in that order, 0.18 µM and 260 nM. The like results for `CC(C)c1ncnc(C(C)C)c1-n1c(=O)c(C#N)c(N2CCN(C(=O)/C=C/CN)CC2)c2cc(Cl)c(-c3ccccc3F)nc21` [Example 4.1, (E)-4-(4-(4-aminobut-2-enoyl)piperazin-1-yl)-6-chloro-1-(4,6-diisopropylpyrimidin-5-yl)-7-(2-fluorophenyl)-2-oxo-1,2-dihydro-1,8-naphthyridine-3-carbonitrile] were, in that order, 0.18 µM and 160 nM. For the compound `C=CC(=O)N1CCN(c2c(C#N)c(=O)n(-c3c(C)ccnc3C(C)C)c3nc(-c4ccccc4F)c(Cl)cc23)CC1` [Example 6, 4-(4-Acryloylpiperazin-1-yl)-6-chloro-7-(2-fluorophenyl)-1-(2-isopropyl-4-methylpyridin-3-yl)-2-oxo-1,2-dihydro-1,8-naphthyridine-3-carbonitrile], in experiment [1], the “Coupled exchange IC50 (5 min; μM)” value worked out at 0.17 µM. In addition, in experiment [2] (2 h compound treatment), the IC50 came out at 170 nM. In the case of `CC(C)c1ncnc(C(C)C)c1-n1c(=O)c(C#N)c(N2CCN(C(=O)/C=C/CNC(C)(C)C)CC2)c2cc(Cl)c(-c3ccccc3F)nc21` [Example 5.2, (E)-4-(4-(4-(tert-butylamino)but-2-enoyl)piperazin-1-yl)-6-chloro-1-(4,6-diisopropylpyrimidin-5-yl)-7-(2-fluorophenyl)-2-oxo-1,2-dihydro-1,8-naphthyridine-3-carbonitrile], the “Coupled exchange IC50 (5 min; μM)” value in experiment [1] worked out at 0.44 µM. Also, in experiment [2] (setting [3]), the IC50 was determined as 390 nM. On to `C=CC(=O)N1CCN(c2c(C#N)c(=O)n(-c3c(C)ccnc3C(C)C)c3nc(-c4ccccc4F)c(Cl)cc23)C[C@H]1C` (single isomer, unassigned) [Example 6.7], for which, in experiment [1], the “Coupled exchange IC50 (5 min; μM)” value amounted to 0.20 µM. Moreover, in experiment [2] (setting [3]), the IC50 was 150 nM. The like results for `CNC/C=C/C(=O)N1CCN(c2c(C#N)c(=O)n(-c3c(C(C)C)ncnc3C(C)C)c3nc(-c4ccccc4F)c(Cl)cc23)CC1` [Example 4, (E)-6-Chloro-1-(4,6-diisopropylpyrimidin-5-yl)-7-(2-fluorophenyl)-4-(4-(4-(methylamino)but-2-enoyl)piperazin-1-yl)-2-oxo-1,2-dihydro-1,8-naphthyridine-3-carbonitrile trifluoroacetate salt] were, in that order, 0.34 µM and 300 nM. Turning to `C=CC(=O)N1CCN(c2c(C#N)c(=O)n(-c3c(C)ccnc3C(C)C)c3nc(-c4ccccc4F)c(Cl)cc23)CC1` [Example 6.5, 4-(4-acryloylpiperazin-1-yl)-6-chloro-7-(2-fluorophenyl)-1-(2-isopropyl-4-methylpyridin-3-yl)-2-oxo-1,2-dihydro-1,8-naphthyridine-3-carbonitrile], the “Coupled exchange IC50 (5 min; μM)” value in experiment [1] stood at 0.10 µM. In addition, the IC50 in experiment [2] (2 h compound treatment) was 60 nM. In the case of `C=CC(=O)N1CCN(c2c(C#N)c(=O)n(-c3c(C)ccnc3C(C)C)c3nc(-c4ccccc4C(C)C)c(Cl)cc23)CC1` (single isomer, unassigned) [Example 11.3, 4-(4-acryloylpiperazin-1-yl)-6-chloro-1-(2-isopropyl-4-methylpyridin-3-yl)-7-(2-isopropylphenyl)-2-oxo-1,2-dihydro-1,8-naphthyridine-3-carbonitrile], the “Coupled exchange IC50 (5 min; μM)” value in experiment [1] was 0.05 µM. Also, the IC50 in experiment [2] (setting [3]) is 90 nM. The like results for `C=CC(=O)N1CCN(c2c(C#N)c(=O)n(-c3c(C(C)C)ccnc3C(C)C)c3nc(-c4ccccc4F)c(Cl)cc23)CC1` (racemic) [Example 8, 4-(4-Acryloylpiperazin-1-yl)-6-chloro-1-(2,4-diisopropylpyridin-3-yl)-7-(2-fluorophenyl)-2-oxo-1,2-dihydro-1,8-naphthyridine-3-carbonitrile] were, in that order, 0.06 µM and 120 nM. Consider `C=CC(=O)N1CCN(c2c(C#N)c(=O)n(-c3c(C)ccnc3C(C)C)c3nc(-c4ccccc4C)c(Cl)cc23)CC1` (single isomer, unassigned) [Example 11.1, 4-(4-acryloylpiperazin-1-yl)-6-chloro-1-(2-isopropyl-4-methylpyridin-3-yl)-2-oxo-7-(o-tolyl)-1,2-dihydro-1,8-naphthyridine-3-carbonitrile], for which the “Coupled exchange IC50 (5 min; μM)” value in experiment [1] is 0.15 µM. Further, in experiment [2] (setting [3]), the IC50 turned out to be 120 nM. The like results for `C=CC(=O)N1CCN(c2c(C#N)c(=O)n(-c3c(N(C)C)ccnc3C(C)C)c3nc(-c4ccccc4F)c(Cl)cc23)CC1` (single isomer, unassigned) [Example 8.6, 4-(4-acryloylpiperazin-1-yl)-6-chloro-1-(4-(dimethylamino)-2-isopropylpyridin-3-yl)-7-(2-fluorophenyl)-2-oxo-1,2-dihydro-1,8-naphthyridine-3-carbonitrile] were, in that order, 0.25 µM and 160 nM. Take `CC(C)c1ncnc(C(C)C)c1-n1c(=O)c(C#N)c(N2CCN(C(=O)/C=C/CN3CCCCC3)CC2)c2cc(Cl)c(-c3ccccc3F)nc21` [Example 3.1]: the “Coupled exchange IC50 (5 min; μM)” value in experiment [1] worked out at 1.02 µM. Further, the IC50 in experiment [2] (setting [3]) stood at 4470 nM. `CC(C)NC/C=C/C(=O)N1CCN(c2c(C#N)c(=O)n(-c3c(C(C)C)ncnc3C(C)C)c3nc(-c4ccccc4F)c(Cl)cc23)CC1` [Example 5.1, (E)-6-chloro-1-(4,6-diisopropylpyrimidin-5-yl)-7-(2-fluorophenyl)-4-(4-(4-(isopropylamino)but-2-enoyl)piperazin-1-yl)-2-oxo-1,2-dihydro-1,8-naphthyridine-3-carbonitrile]: the “Coupled exchange IC50 (5 min; μM)” value in experiment [1] amounted to 0.44 µM. For the same compound, the IC50 in experiment [2] (setting [3]) stood at 560 nM. Turning to `C=CC(=O)N1CCN(c2c(C#N)c(=O)n(-c3c(C(C)C)ccnc3C(C)C)c3nc(-c4ccccc4C)c(Cl)cc23)CC1` (single isomer, unassigned) [Example 7.1, 4-(4-acryloylpiperazin-1-yl)-6-chloro-1-(2,4-diisopropylpyridin-3-yl)-2-oxo-7-(o-tolyl)-1,2-dihydro-1,8-naphthyridine-3-carbonitrile], the IC50 in experiment [2] (2 h compound treatment) was determined as 140 nM.
